Source: patent publication US20110129532A1, “METHOD AND MEANS FOR TREATING VIRAL DISEASE, IN PARTICULAR HIV/AIDS” (ISR Immune System Regulation AB, priority 2008, published 2011)

Tests used:
PBMC = assay: IL-2-induced PBMC proliferation assay ([3H]thymidine); format: cell-based, human; conditions: PBMC from a healthy donor; with IL-2 50 U/mL; compared with IL-2 alone and untreated controls; FIG. 1
Procedure: Isolation of peripheral blood mononuclear cells (PBMC). Lymphocytes and monocytes were purified from blood samples from healthy donors using Ficoll-Paque Plus (Amersham Biosciences, Uppsala, Sweden). The blood sample was diluted with PBS and carefully layered on a Ficoll-sodium diatrizoate solution, after which the two-phase system was centrifuged at 400×g for 30 min. […] The lymphocyte layer was collected using a Pasteur pipette, and the cells washed with HBSS to remove excess Ficoll-Paque Plus, plasma and platelets. The cells were counted and dissolved in RPMI medium containing 10% HuS, 1% PeSt and 1% glutamine.
Proliferation assay. Interleukin (IL)-2 plays a pivotal role in lymphocyte activation and proliferation. For this reason the effect of GnRH analog on IL-2-induced PBMC proliferation was investigated. PBMCs from a healthy donor were plated in round-bottomed 96-well plates at a concentration of 1×10^5 cells/100 μL in the culture medium described above. Just after the onset of culture, the cells were treated with IL-2 (Proleukin, Chiron Corporation, Emeryville, Ca, USA) at a concentration of 50 U/mL and with three different concentrations between 1×10^−9 and 1×10^−5 M of GnRH analog (Leuprolide acetate, Nordic Drugs, Limhamn, Sweden) or culture medium (FIG. 1). […] Radioactivity was measured using a 1205 Betaplate Liquid ScintillCounter (Wallac, Turku, Finland).

T cells = assay: Stimulation of T cells in whole blood with GnRH analog, activation markers by flow cytometry; format: cell-based, human
Procedure: Stimulation of T-cells from HIV-patients with GnRH-analog. Because of the risk of contamination, blood samples from HIV-patients had to be handled and analyzed in a closed automated system. Heparinised blood from three HIV-patients and two healthy individuals was diluted with serum-free culture medium (Aim V from Invitrogen) and stimulated with 50 U/mL IL-2 and four different concentrations of the GnRH analog leuprolide acetate between 10^−1 and 10^−5 M. The blood samples were handled by a dispensation robot (Prep Plus) and incubated, lysed, stabilized and fixed in a TQ-Prep machine. The incubation time was 18 h and the temperature 37° C. After the incubation with Leuprolide acetate and IL-2, the cells were stained with fluorochrome-conjugated mAbs for 10 min, and red blood cells were lysed. The lymphocytes were subsequently analysed by flow cytometry on an Epics XL-MCL (all machines from Beckman Coulter). T-cells were identified by their forward-and side scatter properties, and the surface expression of CD3. The expression of the activation markers CD25, CD69, HLA ABC, and HLA DR on T cells was evaluated.

[1] = whole blood, HIV-infected patients and control subjects, 18 h incubation

CCNC(=O)[C@@H]1CCCN1C(=O)[C@H](CCCNC(=N)N)NC(=O)[C@H](CC(C)C)NC(=O)[C@@H](CC(C)C)NC(=O)[C@H](Cc1ccc(O)cc1)NC(=O)[C@H](CO)NC(=O)[C@H](Cc1c[nH]c2ccccc12)NC(=O)[C@H](Cc1c[nH]cn1)NC(=O)[C@@H]1CCC(=O)N1 [GnRH, D-Leu^6, des-Gly-NH2^10] GnRH (1-9) NHEt]
PBMC proliferation (PBMC): increased proliferation | expression of HLA DR on T cells (T cells; whole blood from HIV-patients, 18 h incubation): increased in one of three HIV-patients | expression of HLA ABC on T cells (T cells; whole blood from healthy subjects or HIV-infected patients, 18 hours incubation, 50 U/mL IL-2, leuprolide acetate between 10^−1 and 10^−5 M, FIG. 6): upregulation of HLA ABC | expression of CD25 on T cells (T cells; [1]): only a slight increase | expression of CD69 on T cells (T cells; [1]): only a slight increase
